{"source": "patent US7912535B2", "about": "“Method and system for assessing repolarization abnormalities” (University of Rochester, priority 2006, dated 2011)", "system": "IKr ion currents", "test": "First validation: ECG repolarization changes (QTc, ERDc, LRDc) on sotalol versus baseline", "assay_type": "in vivo", "details": "median (standard deviation); for ERDc 50%, Δ on drug - baseline / LRDc 50%, Δ on drug - baseline: individual correction formula", "source_text": "FIG. 2 illustrates one embodiment of a such a method for assessing repolarization abnormalities. At least two repolarization signals are identified 30 from a set of ECG signals. The ECG signals may be obtained from a variety of ECG capture devices as discussed above. The ECG signals may be obtained in “real-time” from a subject, or the ECG signals may be obtained from a database (which should be understood to include memory devices) storing previously obtained ECG signals.\nOnce the at least two repolarization signals are identified 30, principal component analysis 32 can be done on the repolarization signals to extract eigenvectors ev1 and ev2. Principal component analysis (PCA) is a way of identifying patterns in data, and is especially useful in dealing with multi-dimensional data, such as multiple repolarization signals from multiple ECG leads. PCA analysis is a mathematical technique which those skilled in the art will be familiar with, and results in a matrix of eigenvectors. As a summary of the PCA analysis, first, the mean is subtracted from each of the data dimensions. This produces a data set whose mean is zero. Next, a covariance matrix is calculated for the data. If the data has n-dimensions, then the covariance matrix will be a square n-by-n matrix. Mathematical constructs called eigenvectors and eigenvalues may be calculated for a square matrix, and so next, a set of eigenvectors and eigenvalues are calculated for the covariance matrix. For the n-by-n covariance matrix, there will be n eigenvectors. The eigenvectors are orthogonal to each other, and each has a corresponding eigenvalue. The eigenvectors can be thought of as a representation of the multi-dimension data. The eigenvector with the highest eigenvalue is the principal component of the data set. The eigenvectors may be sorted from highest to lowest, and the eigenvectors with the two highest eigenvalues may be referred to as ev1 and ev2 respectively.\nOnce the PCA analysis 32 has been completed, a maximum vector MV may be determined 34 based on a transformed ECG signal in a preferential plane defined by ev1 and ev2. Mathematically, MV is detected at time t=TMV, where equation 1 is fulfilled: MV=max ? {right arrow over (VECG)}(t)−{right arrow over (VECG)}(TQ) ? , Equation 1)\nReferring again to FIG. 2, once the maximum vector MV has been determined, a repolarization duration which is based on the maximum vector MV is determined 36. The repolarization duration may be determined 36 by taking an arbitrary threshold percentage of the magnitude of MV and projecting the threshold magnitude relative to an endpoint of MV to determine a beginning point and an ending point on the transformed ECG signal in the plane defined by ev1 and ev2. An example of this process can be seen graphically in FIG. 3. In the example of FIG. 3, the arbitrary threshold percentage of the magnitude of MV is 30%. This threshold magnitude of 30% MV (or 30% Vmax) is projected in a circle or arc 38 around the endpoint of MV, which is labeled Vmax. Where the projected threshold 38 crosses 40 the transformed ECG signal 42 (or T-loop) on a first side of the endpoint of MV, we can define a beginning point. Since the data points are samples in time, the beginning point may be designated as the closest true data point 44 to the crossing point 40. Alternatively, the beginning point may be an interpolated data point based on the two closest data points 44 and 46. Where the projected threshold 38 crosses 48 the transformed ECG signal 42 (or T-loop) on a second side of the endpoint of MV, we can define an ending point. Since the data points are samples in time, the ending point may be designated as the closest true data point 50 to the crossing point 48. Alternatively, the ending point may be an interpolated data point based on the two closest data points 50 and 52. […]", "note": "Marks after values point to notes of the source that are not given here."}
{"smiles": "CC(C)NCC(O)c1ccc(NS(C)(=O)=O)cc1", "note": "(stereo not drawn) [sotalol]", "values": [{"measurement": "QTc L II, Δ on drug - baseline", "setting": "42′-48′ after dosing", "value": "4.0(16) ms"}, {"measurement": "ERDc 50%, Δ on drug - baseline", "setting": "42′-48′ after dosing", "value": "5.1(14)* ms"}, {"measurement": "LRDc 50%, Δ on drug - baseline", "setting": "42′-48′ after dosing", "value": "1.1(6.2)* ms"}, {"measurement": "QTc L II, Δ on drug - baseline", "setting": "48′-54′ after dosing", "value": "4.1(16) ms"}, {"measurement": "ERDc 50%, Δ on drug - baseline", "setting": "48′-54′ after dosing", "value": "4.9(14)* ms"}, {"measurement": "LRDc 50%, Δ on drug - baseline", "setting": "48′-54′ after dosing", "value": "0.6(5.2)* ms"}, {"measurement": "QTc L II, Δ on drug - baseline", "setting": "54′-1 h after dosing", "value": "4.3(16)* ms"}, {"measurement": "ERDc 50%, Δ on drug - baseline", "setting": "54′-1 h after dosing", "value": "4.4(12) ms"}, {"measurement": "LRDc 50%, Δ on drug - baseline", "setting": "54′-1 h after dosing", "value": "0.3(6.5) ms"}, {"measurement": "QTc L II, Δ on drug - baseline", "setting": "1 h-1 h 6′ after dosing", "value": "13(17)* ms"}, {"measurement": "ERDc 50%, Δ on drug - baseline", "setting": "1 h-1 h 6′ after dosing", "value": "9.5(16)** ms"}, {"measurement": "LRDc 50%, Δ on drug - baseline", "setting": "1 h-1 h 6′ after dosing", "value": "4.0(5.9)** ms"}]}
